Laboratory results as given in patent US20230048888A1, “USE OF TRIAZOLOTRIAZINE DERIVATIVE IN TREATMENT OF DISEASES” (ZHEJIANG VIMGREEN PHARMACEUTICALS, LTD., priority 2019, published 2023).

Experiment: Pharmacokinetics of Compound 40 and benzene sulfonate thereof in ICR mice, PO
Details: mouse, in vivo, PO 100 mg/kg (based on free base), 40% Hp-β-CD

SMILES: Cn1nnc(-c2ccc(CCNc3nc(N)n4nc(-c5ccco5)nc4n3)cc2)n1 [Compound 40, N5-(4-(2-methyl-2H-tetrazol-5-yl)phenethyl)-2-(furan-2-yl)-[1,2,4]triazolo[1,5-a][1,3,5]triazine-5,7-diamine]
- AUC(0-t): 11900 ng·h/mL
- Cmax: 2900 ng/mL
- Tmax: 0.5 h
- AUC(0-inf) (read-out: AUCINF—pred): 12100 ng·h/mL
- half-life (read-out: T½ (converted)): 4.27 h
